Measurements published in article PMC8512631, “Structural Basis for PPARs Activation by The Dual PPARα/γ Agonist Sanguinarine: A Unique Mode of Ligand Recognition” (Molecules, 2021).
No end group written: not given here. *: point of attachment. Biotin = O=C1N[C@H]2[C@H](CS[C@H]2CCCCC(=O)*)N1

What was measured:
[1] = target: T1, PPARδ (Homo sapiens, UniProt Q03181, H244A); test: PPRE luciferase reporter in […] cells, […]; format: cell-based
T1 construct: gene PPARD; full-length
T1 sequence (Q03181 1-441 H244A): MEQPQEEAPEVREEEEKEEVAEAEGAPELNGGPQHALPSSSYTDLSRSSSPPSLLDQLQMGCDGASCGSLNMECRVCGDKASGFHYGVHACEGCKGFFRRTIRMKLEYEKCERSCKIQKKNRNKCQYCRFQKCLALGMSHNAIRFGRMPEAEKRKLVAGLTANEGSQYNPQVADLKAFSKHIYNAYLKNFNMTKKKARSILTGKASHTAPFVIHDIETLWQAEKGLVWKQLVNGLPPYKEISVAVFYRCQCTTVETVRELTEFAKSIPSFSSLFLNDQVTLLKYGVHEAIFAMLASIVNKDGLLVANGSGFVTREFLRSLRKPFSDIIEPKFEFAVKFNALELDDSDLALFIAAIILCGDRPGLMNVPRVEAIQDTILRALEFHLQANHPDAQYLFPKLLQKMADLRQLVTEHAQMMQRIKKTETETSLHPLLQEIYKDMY

[2] = target: T2, PPARδ (Homo sapiens, UniProt Q03181, R248A); test: PPRE luciferase reporter in […] cells, […]; format: cell-based
T2 construct: gene PPARD; full-length
T2 sequence (Q03181 1-441 R248A): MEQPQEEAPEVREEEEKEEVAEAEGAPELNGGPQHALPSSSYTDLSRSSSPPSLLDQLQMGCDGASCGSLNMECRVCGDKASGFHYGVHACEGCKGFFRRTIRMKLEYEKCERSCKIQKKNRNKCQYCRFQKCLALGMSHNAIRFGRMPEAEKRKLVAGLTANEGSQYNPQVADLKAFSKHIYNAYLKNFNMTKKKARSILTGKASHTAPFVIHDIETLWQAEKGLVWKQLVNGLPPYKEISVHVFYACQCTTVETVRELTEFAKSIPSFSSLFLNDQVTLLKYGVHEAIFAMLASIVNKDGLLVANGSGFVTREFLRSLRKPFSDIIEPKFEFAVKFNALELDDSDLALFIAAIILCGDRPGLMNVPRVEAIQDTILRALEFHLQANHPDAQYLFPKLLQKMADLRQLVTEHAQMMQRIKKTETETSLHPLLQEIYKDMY

[3] = target: T3, PPARα (Homo sapiens, UniProt Q07869); test: thermal shift assay of LBD with SRC1 peptide; GAL4 reporter at […]; format: binding
T3 construct: gene PPARA; LBD
T3 sequence (Q15788 2-1441 partner, one chain of several): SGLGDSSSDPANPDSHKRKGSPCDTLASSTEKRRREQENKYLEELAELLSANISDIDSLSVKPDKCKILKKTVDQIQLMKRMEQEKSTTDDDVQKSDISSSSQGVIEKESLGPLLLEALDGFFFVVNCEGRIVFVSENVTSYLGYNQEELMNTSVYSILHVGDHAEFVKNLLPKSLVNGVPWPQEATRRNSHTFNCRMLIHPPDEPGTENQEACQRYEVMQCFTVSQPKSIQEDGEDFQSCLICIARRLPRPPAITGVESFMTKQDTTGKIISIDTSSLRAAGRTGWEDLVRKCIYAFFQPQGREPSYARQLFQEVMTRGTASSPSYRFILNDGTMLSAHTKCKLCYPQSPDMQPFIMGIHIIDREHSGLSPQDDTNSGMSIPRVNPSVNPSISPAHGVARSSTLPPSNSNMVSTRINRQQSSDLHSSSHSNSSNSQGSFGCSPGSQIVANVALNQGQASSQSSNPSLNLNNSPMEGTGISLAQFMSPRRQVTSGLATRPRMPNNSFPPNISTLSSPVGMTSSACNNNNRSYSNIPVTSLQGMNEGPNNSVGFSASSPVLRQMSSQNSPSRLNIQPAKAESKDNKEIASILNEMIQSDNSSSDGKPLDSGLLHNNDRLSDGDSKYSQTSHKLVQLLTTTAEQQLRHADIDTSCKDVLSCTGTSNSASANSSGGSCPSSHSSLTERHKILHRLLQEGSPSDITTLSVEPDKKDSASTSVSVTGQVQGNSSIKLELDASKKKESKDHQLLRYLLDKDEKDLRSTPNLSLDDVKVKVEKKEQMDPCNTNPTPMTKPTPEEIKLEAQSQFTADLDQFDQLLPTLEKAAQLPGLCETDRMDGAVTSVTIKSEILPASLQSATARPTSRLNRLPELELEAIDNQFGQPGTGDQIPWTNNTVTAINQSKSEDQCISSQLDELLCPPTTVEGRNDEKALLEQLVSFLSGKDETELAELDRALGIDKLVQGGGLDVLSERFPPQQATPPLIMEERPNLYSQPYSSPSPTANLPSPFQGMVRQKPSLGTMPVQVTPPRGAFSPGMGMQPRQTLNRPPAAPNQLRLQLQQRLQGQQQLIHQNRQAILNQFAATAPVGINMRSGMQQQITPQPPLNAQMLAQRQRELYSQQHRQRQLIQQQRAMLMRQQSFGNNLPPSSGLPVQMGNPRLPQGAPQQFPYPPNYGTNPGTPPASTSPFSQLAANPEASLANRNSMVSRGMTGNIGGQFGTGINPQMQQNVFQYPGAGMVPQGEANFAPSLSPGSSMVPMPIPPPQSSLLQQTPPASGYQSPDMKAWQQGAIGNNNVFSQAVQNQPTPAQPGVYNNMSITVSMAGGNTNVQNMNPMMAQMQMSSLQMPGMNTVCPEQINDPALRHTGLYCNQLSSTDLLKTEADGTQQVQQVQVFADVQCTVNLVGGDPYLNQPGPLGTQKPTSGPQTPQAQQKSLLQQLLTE

[4] = target: T4, human PPARα ligand-binding domain (residues 196-468) (human, UniProt Q07869-1 196-468); test: AlphaScreen or HTRF; approximately 20–40 nM PPAR LBDs on nickel chelate acceptor beads, 20 nM biotinylated co-factor peptides on streptavidin donor beads; 50 mM MOPS, 50 mM NaF, 0.05 mM CHAPS, 0.1 mg/mL BSA, pH 7.4; in response to 1 μM sanguinarine; conditions: both partners purified
T4 construct: Expressed from pET24a; The methods describe only this PPARα-LBD construct; also called PPARα–LBD; source: E. coli BL21 (DE3), purified (Ni HiTrap, gel filtration Superdex 200); not shown: His6, N-terminal, kept
T4 sequence (looked up): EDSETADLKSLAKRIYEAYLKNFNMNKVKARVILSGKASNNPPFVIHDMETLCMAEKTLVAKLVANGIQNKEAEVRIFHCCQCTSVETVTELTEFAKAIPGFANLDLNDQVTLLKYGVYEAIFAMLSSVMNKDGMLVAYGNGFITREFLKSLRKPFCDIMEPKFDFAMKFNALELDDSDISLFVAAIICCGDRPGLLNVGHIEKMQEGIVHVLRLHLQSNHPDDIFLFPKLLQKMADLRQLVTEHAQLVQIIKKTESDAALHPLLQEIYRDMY

Molecule: C[n+]1cc2c3c(ccc2c2ccc4cc5c(cc4c21)OCO5)OCO3 [sanguinarine]
- PPRE luciferase reporter in 293T cells, 1 μM [1]: the H244A mutation enables PPARδ to respond to sanguinarine treatment
- PPRE luciferase reporter in 293T cells, 1 μM [2]: sanguinarine activated the transcriptional activity of PPARδ–R248A mutation, in contrast to wild-type PPARδ

Molecule: Cc1nc(-c2ccc(C(F)(F)F)cc2)sc1C(=O)NCc1ccc(OC(C)(C)C(=O)O)cc1 [GW590735]
- thermal shift assay of LBD with SRC1 peptide; GAL4 reporter at 1 μM [3]: thermal shift assay showed that SRC1 increased the thermal stability of sanguinarine–PPARα, compared with GW735–PPARα

Molecule: Biotin-QEPVSPKKKENALLRYLLDKDDTKD [biotinylated SRC2-3 co-activator LXXLL motif peptide]
- binding result [4]: binds

Molecule: Biotin-PDAASKHKQLSELLRGGSG (the parent protein is in doubt) [biotinylated SRC3-3 co-activator LXXLL motif peptide]
- binding result [4]: binds

Molecule: Biotin-SPSSHSSLTERHKILHRLLQEGSP [biotinylated SRC1-2 co-activator LXXLL motif peptide]
- binding result [4]: binds
